The source made the active and inactive calls. How the calls were made is not given here.
Test system: rodent carcinogenicity bioassays, tumor incidence
Experiment: CCRIS carcinogenicity studies
How it was run: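 Archive of carcinogenicity, mutagenicity, tumor promotion and tumor inhibition results drawn from journals, NCI reports and other sources, expert-reviewed; covers 1985-2011 and is no longer updated.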

SMILES: CCN(CC)C(=S)SSC(=S)N(CC)CC
- carcinogen call (Species: MOUSE, Strain/Sex: B6C3F1/FEMALE, Route: ORAL, Dose: 0, 100, 500 PPM IN DIET, Dose: 0, 100, 500 PPM IN DIET): inactive; negative
- carcinogen call (Species: MOUSE, Strain/Sex: B6C3F1/MALE, Route: ORAL, Dose: 0, 500, 2000 PPM IN DIET, Dose: 0, 500, 2000 PPM IN DIET): inactive; negative
- carcinogen call (Species: RAT, Strain/Sex: F344/FEMALE, Route: ORAL, Dose: 0, 300, 600 PPM IN DIET, Dose: 0, 300, 600 PPM IN DIET): inactive; negative
- carcinogen call (Species: RAT, Strain/Sex: F344/MALE, Route: ORAL, Dose: 0, 300, 600 PPM IN DIET, Dose: 0, 300, 600 PPM IN DIET): inactive; negative

SMILES: O=C1O[C@@H](CN2CCOCC2)CN1N=Cc1ccc([N+](=O)[O-])o1
- carcinogen call (Species: RAT, Route: ORAL, Tumor Site: Type of Lesion: LYMPHATIC SYSTEM: LYMPHOBLASTIC LYMPHOMA, MAMMARY GLAND): active; positive

SMILES: c1ccc2c(c1)ccc1cc3ccc4ccccc4c3cc12
- carcinogen call (Species: MOUSE, Strain/Sex: SWISS/FEMALE, Route: DERMAL, Dose: 0, 78 UG IN ACETONE (0.4%) 2/WK FOR 60 WK FOR A TOTAL DOSE OF 0, 9.4 MG (STUDY DURATION: 80 WK), Dose: 0, 78 UG IN ACETONE (0.4%) 2/WK FOR 60 WK FOR A TOTAL DOSE OF 0, 9.4 MG (STUDY DURATION: 80 WK), Tumor Site: Type of Lesion: SKIN: CARCINOMA): active; positive

SMILES: [Ni+2].[OH-].[OH-]
- carcinogen call (Species: RAT, Strain/Sex: WISTAR, Route: INTRAMUSCULAR IMPLANT, Tumor Site: Type of Lesion: IMPLANT SITE): active; positive

SMILES: COc1ccc(CCN2CCC(Nc3nc4ccccc4n3Cc3ccc(F)cc3)CC2)cc1
- carcinogen call (Species: MOUSE, Strain/Sex: SWISS/FEMALE, Route: ORAL, Dose: 0, 2.5, 10, 40 MG/100 G OF DIET FOR DURATION OF STUDY (STUDY DURATION: 18 Mo), Dose: 0, 2.5, 10, 40 MG/100 G OF DIET FOR DURATION OF STUDY (STUDY DURATION: 18 Mo)): inactive; negative
- carcinogen call (Species: MOUSE, Strain/Sex: SWISS/MALE, Route: ORAL, Dose: 0, 2.5, 10, 40 MG/100 G OF DIET FOR DURATION OF STUDY (STUDY DURATION: 18 MO), Dose: 0, 2.5, 10, 40 MG/100 G OF DIET FOR DURATION OF STUDY (STUDY DURATION: 18 MO)): inactive; negative
- carcinogen call (Species: RAT, Strain/Sex: WISTAR/FEMALE, Route: ORAL, Dose: 0, 5, 20, 80 MG/100 G OF DIET FOR DURATION OF STUDY (STUDY DURATION: 2 YR), Dose: 0, 5, 20, 80 MG/100 G OF DIET FOR DURATION OF STUDY (STUDY DURATION: 2 YR)): inactive; negative
- carcinogen call (Species: RAT, Strain/Sex: WISTAR/MALE, Route: ORAL, Dose: 0, 5, 20, 80 MG/100 G OF DIET FOR DURATION OF STUDY (STUDY DURATION: 2 YR), Dose: 0, 5, 20, 80 MG/100 G OF DIET FOR DURATION OF STUDY (STUDY DURATION: 2 YR)): inactive; negative
